Results: ChEMBL document CHEMBL4706643 (J Med Chem, 2021)

What follows are molecules tested on Hepatitis B virus (assay: Antiviral activity against HBV infected in human HepG2-NTCP cells assessed as reduction in HBeAg secretion cells inoculated with virus for 4 hrs at room temperature and 37 degree C for 24 hrs followed inoculum changed with PMM medium for every 2 days until day 5 post infection by ELISA).
Type: functional, organism-based
CC[C@@H]1NC(=O)[C@H]([C@@H]2O[C@@H](Sc3cccc(OCc4cccnc4)c3)C[C@H]2C)N(C)C(=O)[C@H](C(C)C)N(C)C(=O)[C@H](CC(C)C)N(C)C(=O)[C@H](CC(C)C)N(C)C(=O)[C@@H](C)NC(=O)[C@H](C)NC(=O)[C@H](CC(C)C)N(C)C(=O)[C@H](C(C)C)NC(=O)[C@H](CC(C)C)N(C)C(=O)CN(C)C1=O showed an IC50 of 269 nM.
CC[C@@H]1NC(=O)[C@H]([C@@H]2O[C@@H](Sc3ccc(OC)cc3)C[C@H]2C)N(C)C(=O)[C@H](C(C)C)N(C)C(=O)[C@H](CC(C)C)N(C)C(=O)[C@H](CC(C)C)N(C)C(=O)[C@@H](C)NC(=O)[C@H](C)NC(=O)[C@H](CC(C)C)N(C)C(=O)[C@H](C(C)C)NC(=O)[C@H](CC(C)C)N(C)C(=O)CN(C)C1=O showed an IC50 of 990 nM.
With CC[C@@H]1NC(=O)[C@H]([C@@H]2OC(C(C)C)C[C@H]2C)N(C)C(=O)[C@H](C(C)C)N(C)C(=O)[C@H](CC(C)C)N(C)C(=O)[C@H](CC(C)C)N(C)C(=O)[C@@H](C)NC(=O)[C@H](C)NC(=O)[C@H](CC(C)C)N(C)C(=O)[C@H](C(C)C)NC(=O)[C@H](CC(C)C)N(C)C(=O)CN(C)C1=O (stereo not given in full) the IC50 was > 10000 nM.
CC[C@@H]1NC(=O)C([C@@H]2OC(O)C[C@H]2C)N(C)C(=O)[C@H](C(C)C)N(C)C(=O)[C@H](CC(C)C)N(C)C(=O)[C@H](CC(C)C)N(C)C(=O)[C@@H](C)NC(=O)[C@H](C)NC(=O)[C@H](CC(C)C)N(C)C(=O)[C@H](C(C)C)NC(=O)[C@H](CC(C)C)N(C)C(=O)CN(C)C1=O (stereo not given in full) was tested, and the IC50 was 11900 nM.
Molecule C/C=C/C[C@@H](C)[C@@H](O)[C@H]1C(=O)N[C@@H](CC)C(=O)N(C)CC(=O)N(C)[C@@H](CC(C)C)C(=O)N[C@@H](C(C)C)C(=O)N(C)[C@@H](CC(C)C)C(=O)N[C@@H](C)C(=O)N[C@H](C)C(=O)N(C)[C@@H](CC(C)C)C(=O)N(C)[C@@H](CC(C)C)C(=O)N(C)[C@@H](C(C)C)C(=O)N1C [CYCLOSPORINE] has an IC50 of 5780 nM.
Molecule CC[C@@H]1NC(=O)[C@H]([C@@H]2O[C@@H](Sc3cccc(OCc4ccc(F)c(Cl)c4)c3)C[C@H]2C)N(C)C(=O)[C@H](C(C)C)N(C)C(=O)[C@H](CC(C)C)N(C)C(=O)[C@H](CC(C)C)N(C)C(=O)[C@@H](C)NC(=O)[C@H](C)NC(=O)[C@H](CC(C)C)N(C)C(=O)[C@H](C(C)C)NC(=O)[C@H](CC(C)C)N(C)C(=O)CN(C)C1=O has an IC50 of 335 nM.
In the case of CC[C@@H]1NC(=O)[C@H]([C@@H]2O[C@H](Sc3ccccc3)C[C@H]2C)N(C)C(=O)[C@H](C(C)C)N(C)C(=O)[C@H](CC(C)C)N(C)C(=O)[C@H](CC(C)C)N(C)C(=O)[C@@H](C)NC(=O)[C@H](C)NC(=O)[C@H](CC(C)C)N(C)C(=O)[C@H](C(C)C)NC(=O)[C@H](CC(C)C)N(C)C(=O)CN(C)C1=O, the IC50 is reported as 5330 nM.
With CC[C@@H]1NC(=O)[C@H]([C@@H]2O[C@@H](Sc3cccc(N(C)CC)c3)C[C@H]2C)N(C)C(=O)[C@H](C(C)C)N(C)C(=O)[C@H](CC(C)C)N(C)C(=O)[C@H](CC(C)C)N(C)C(=O)[C@@H](C)NC(=O)[C@H](C)NC(=O)[C@H](CC(C)C)N(C)C(=O)[C@H](C(C)C)NC(=O)[C@H](CC(C)C)N(C)C(=O)CN(C)C1=O the IC50 was 206 nM.
In the case of CC[C@@H]1NC(=O)[C@H]([C@@H]2O[C@@H](Oc3cc(OC)cc(OC)c3)C[C@H]2C)N(C)C(=O)[C@H](C(C)C)N(C)C(=O)[C@H](CC(C)C)N(C)C(=O)[C@H](CC(C)C)N(C)C(=O)[C@@H](C)NC(=O)[C@H](C)NC(=O)[C@H](CC(C)C)N(C)C(=O)[C@H](C(C)C)NC(=O)[C@H](CC(C)C)N(C)C(=O)CN(C)C1=O, the IC50 is reported as 689 nM.
With CC[C@@H]1NC(=O)[C@H]([C@@H]2O[C@@H](Sc3cccc(OCCc4ccccc4)c3)C[C@H]2C)N(C)C(=O)[C@H](C(C)C)N(C)C(=O)[C@H](CC(C)C)N(C)C(=O)[C@H](CC(C)C)N(C)C(=O)[C@@H](C)NC(=O)[C@H](C)NC(=O)[C@H](CC(C)C)N(C)C(=O)[C@H](C(C)C)NC(=O)[C@H](CC(C)C)N(C)C(=O)CN(C)C1=O the IC50 was 354 nM.
In the case of CC[C@@H]1NC(=O)[C@H]([C@@H]2O[C@@H](Sc3ccc(OCc4ccccc4)cc3)C[C@H]2C)N(C)C(=O)[C@H](C(C)C)N(C)C(=O)[C@H](CC(C)C)N(C)C(=O)[C@H](CC(C)C)N(C)C(=O)[C@@H](C)NC(=O)[C@H](C)NC(=O)[C@H](CC(C)C)N(C)C(=O)[C@H](C(C)C)NC(=O)[C@H](CC(C)C)N(C)C(=O)CN(C)C1=O, the IC50 is reported as 256 nM.
CC[C@@H]1NC(=O)[C@H]([C@@H]2OC(OCCC(=O)OC)C[C@H]2C)N(C)C(=O)[C@H](C(C)C)N(C)C(=O)[C@H](CC(C)C)N(C)C(=O)[C@H](CC(C)C)N(C)C(=O)[C@@H](C)NC(=O)[C@H](C)NC(=O)[C@H](CC(C)C)N(C)C(=O)[C@H](C(C)C)NC(=O)[C@H](CC(C)C)N(C)C(=O)CN(C)C1=O (stereo not given in full) gave an IC50 of 9260 nM.
In the case of CC[C@@H]1NC(=O)[C@H]([C@@H]2OC(C(C)=O)C[C@H]2C)N(C)C(=O)[C@H](C(C)C)N(C)C(=O)[C@H](CC(C)C)N(C)C(=O)[C@H](CC(C)C)N(C)C(=O)[C@@H](C)NC(=O)[C@H](C)NC(=O)[C@H](CC(C)C)N(C)C(=O)[C@H](C(C)C)NC(=O)[C@H](CC(C)C)N(C)C(=O)CN(C)C1=O (stereo not given in full), the IC50 is reported as > 10000 nM.
CC[C@@H]1NC(=O)[C@H]([C@@H]2O[C@@H](Sc3cccc(OC)c3)C[C@H]2C)N(C)C(=O)[C@H](C(C)C)N(C)C(=O)[C@H](CC(C)C)N(C)C(=O)[C@H](CC(C)C)N(C)C(=O)[C@@H](C)NC(=O)[C@H](C)NC(=O)[C@H](CC(C)C)N(C)C(=O)[C@H](C(C)C)NC(=O)[C@H](CC(C)C)N(C)C(=O)CN(C)C1=O showed an IC50 of 530 nM.
Molecule CC[C@@H]1NC(=O)[C@H]([C@@H]2O[C@@H](Sc3cccc(OCc4ccccc4F)c3)C[C@H]2C)N(C)C(=O)[C@H](C(C)C)N(C)C(=O)[C@H](CC(C)C)N(C)C(=O)[C@H](CC(C)C)N(C)C(=O)[C@@H](C)NC(=O)[C@H](C)NC(=O)[C@H](CC(C)C)N(C)C(=O)[C@H](C(C)C)NC(=O)[C@H](CC(C)C)N(C)C(=O)CN(C)C1=O has an IC50 of 318 nM.
CCCOc1cccc(S[C@H]2C[C@@H](C)[C@H]([C@H]3C(=O)N[C@@H](CC)C(=O)N(C)CC(=O)N(C)[C@@H](CC(C)C)C(=O)N[C@@H](C(C)C)C(=O)N(C)[C@@H](CC(C)C)C(=O)N[C@@H](C)C(=O)N[C@H](C)C(=O)N(C)[C@@H](CC(C)C)C(=O)N(C)[C@@H](CC(C)C)C(=O)N(C)[C@@H](C(C)C)C(=O)N3C)O2)c1 was tested, and the IC50 was 223 nM.
Work on CC[C@@H]1NC(=O)[C@H]([C@@H]2O[C@@H](Sc3cccc(OC(C)c4ccccc4)c3)C[C@H]2C)N(C)C(=O)[C@H](C(C)C)N(C)C(=O)[C@H](CC(C)C)N(C)C(=O)[C@H](CC(C)C)N(C)C(=O)[C@@H](C)NC(=O)[C@H](C)NC(=O)[C@H](CC(C)C)N(C)C(=O)[C@H](C(C)C)NC(=O)[C@H](CC(C)C)N(C)C(=O)CN(C)C1=O (stereo not given in full) yielded an IC50 of 172 nM.
CC[C@@H]1NC(=O)[C@H]([C@@H]2O[C@@H](Sc3ccc(Cl)c(OCc4ccccc4)c3)C[C@H]2C)N(C)C(=O)[C@H](C(C)C)N(C)C(=O)[C@H](CC(C)C)N(C)C(=O)[C@H](CC(C)C)N(C)C(=O)[C@@H](C)NC(=O)[C@H](C)NC(=O)[C@H](CC(C)C)N(C)C(=O)[C@H](C(C)C)NC(=O)[C@H](CC(C)C)N(C)C(=O)CN(C)C1=O gave an IC50 of 215 nM.
CC[C@@H]1NC(=O)[C@H]([C@@H]2O[C@@H](Sc3cc(OC)cc(OCc4ccc(F)cc4)c3)C[C@H]2C)N(C)C(=O)[C@H](C(C)C)N(C)C(=O)[C@H](CC(C)C)N(C)C(=O)[C@H](CC(C)C)N(C)C(=O)[C@@H](C)NC(=O)[C@H](C)NC(=O)[C@H](CC(C)C)N(C)C(=O)[C@H](C(C)C)NC(=O)[C@H](CC(C)C)N(C)C(=O)CN(C)C1=O showed an IC50 of 216 nM.
Molecule CC[C@@H]1NC(=O)[C@H]([C@@H]2O[C@@H](Sc3ccc(N4CCOCC4)cc3)C[C@H]2C)N(C)C(=O)[C@H](C(C)C)N(C)C(=O)[C@H](CC(C)C)N(C)C(=O)[C@H](CC(C)C)N(C)C(=O)[C@@H](C)NC(=O)[C@H](C)NC(=O)[C@H](CC(C)C)N(C)C(=O)[C@H](C(C)C)NC(=O)[C@H](CC(C)C)N(C)C(=O)CN(C)C1=O has an IC50 of 1270 nM.
Molecule CC[C@@H]1NC(=O)[C@H]([C@@H]2O[C@H](Oc3cccc(OCc4ccccc4)c3)C[C@H]2C)N(C)C(=O)[C@H](C(C)C)N(C)C(=O)[C@H](CC(C)C)N(C)C(=O)[C@H](CC(C)C)N(C)C(=O)[C@@H](C)NC(=O)[C@H](C)NC(=O)[C@H](CC(C)C)N(C)C(=O)[C@H](C(C)C)NC(=O)[C@H](CC(C)C)N(C)C(=O)CN(C)C1=O has an IC50 of 681 nM.
CC[C@@H]1NC(=O)[C@H]([C@@H]2O[C@@H](Sc3cccc(O)c3)C[C@H]2C)N(C)C(=O)[C@H](C(C)C)N(C)C(=O)[C@H](CC(C)C)N(C)C(=O)[C@H](CC(C)C)N(C)C(=O)[C@@H](C)NC(=O)[C@H](C)NC(=O)[C@H](CC(C)C)N(C)C(=O)[C@H](C(C)C)NC(=O)[C@H](CC(C)C)N(C)C(=O)CN(C)C1=O showed an IC50 of 1650 nM.
With CC[C@@H]1NC(=O)[C@H]([C@@H]2O[C@@H](Sc3cccc(OCC4CC4)c3)C[C@H]2C)N(C)C(=O)[C@H](C(C)C)N(C)C(=O)[C@H](CC(C)C)N(C)C(=O)[C@H](CC(C)C)N(C)C(=O)[C@@H](C)NC(=O)[C@H](C)NC(=O)[C@H](CC(C)C)N(C)C(=O)[C@H](C(C)C)NC(=O)[C@H](CC(C)C)N(C)C(=O)CN(C)C1=O the IC50 was 365 nM.
With CC[C@@H]1NC(=O)[C@H]([C@@H]2OC(OCCC(=O)O)C[C@H]2C)N(C)C(=O)[C@H](C(C)C)N(C)C(=O)[C@H](CC(C)C)N(C)C(=O)[C@H](CC(C)C)N(C)C(=O)[C@@H](C)NC(=O)[C@H](C)NC(=O)[C@H](CC(C)C)N(C)C(=O)[C@H](C(C)C)NC(=O)[C@H](CC(C)C)N(C)C(=O)CN(C)C1=O (stereo not given in full) the IC50 was > 10000 nM.
Work on CC[C@@H]1NC(=O)[C@H]([C@@H]2O[C@@H](Sc3ccc(CN4CCN(C)CC4)cc3)C[C@H]2C)N(C)C(=O)[C@H](C(C)C)N(C)C(=O)[C@H](CC(C)C)N(C)C(=O)[C@H](CC(C)C)N(C)C(=O)[C@@H](C)NC(=O)[C@H](C)NC(=O)[C@H](CC(C)C)N(C)C(=O)[C@H](C(C)C)NC(=O)[C@H](CC(C)C)N(C)C(=O)CN(C)C1=O yielded an IC50 of 1540 nM.
